According to PubChem BioAssay AID1918945 (Molecular Pharmacology Branch, DTP, NCI, 2023):
Values joined by “and” are separate entries in the source; they are usually repeats but may differ in a detail not shown here. Identical values can stand only once. Each block holds one molecule with its values, some of them ahead of it.

Tested on: 883617-216-R-J1-PDC complex spheroid viability
Test: Anticancer human tumor 883617-216-R-J1-PDC patient-derived bladder carcinoma cell line growth inhibition
Settings: for viability, T/C: stronger effect = lower value
Source text: Multicellular complex tumor spheroid response to LSD1 Inhibitor Iadademstat in combination with a variety of drugs and investigational agents in selected tumor cell lines
The current study was undertaken to assess response to LSD1 inhibitors in combination with standard-of-care drugs and investigational agents in solid tumor complex spheroid models as well as in the K-562 leukemia. Complex spheroids include a stromal component modeled by human endothelial cells (HUVEC) and fibroblasts modeled by human mesenchymal stem cells (MSCs). The concentration ranges selected for each drug and investigational agent were based upon clinically achievable concentrations if the clinical Cmax of the agent was known.
Compounds. The drugs and investigational agents used in this study are listed on Table 1. All of the agents used, including staurosporine (NSC755774) and gemcitabine (NSC613327), were obtained from the Developmental Therapeutics Program, NCI. FDA-approved anticancer drugs are available from the NCI at http://dtp.nci.nih.gov/branches/dscb/oncology_drugset_explanation.html. Drugs and investigational agents were >95% pure by proton nuclear magnetic resonance (NMR) and liquid chromatography/mass spectrometry (LC/MS). Stock solutions were prepared at 400x in DMSO, stored at -70 degrees C, and diluted in fresh medium prior to their use. The final concentration of DMSO in cell culture wells never exceeded 0.25% (v/v). The FDA-approved anticancer drug set is available from the Developmental Therapeutics Program at https://dtp.cancer.gov/organization/dscb/obtaining/available_plates.htm. All drugs and investigational agents were tested over a range starting from a high concentration at or near the clinical Cmax and decreasing in half-log increments. If the clinical Cmax for an agent had not been determined, the highest concentration tested was 10 microM.
Cell Lines. The patient-derived cancer cell (PDC) lines: 292921-168-R-J2-PDC, K24384-001-R-PDC, and 521955-158-R2-J5-PDC pancreatic carcinomas, 556581-035-R-J1 ovarian carcinoma, 324938-238-R-J1-PDC, 855422-203-R-J1-PDC and 883617-216-R-J1-PDC urothelial bladder carcinomas, 743489-274-T-PDC renal cell carcinoma, 138582-R-J1 Merkel cell tumor, K60290-347-R-J1 and K57222-313-R-J1-PDC glioblastomas, 653999-131-R-J2-PDC, LG0703-F948-PDC, and 349418-098-R-PDC non-small cell lung carcinomas, 885512-296-R-J2-PDC, 171881-019-R-J1-PDC breast carcinomas and 186277-243-T-J2-PDC and 233499-124-R-J2-PDC colon carcinomas were obtained from the NCI Patient-Derived Models Repository (PDMR, https://pdmr.cancer.gov). The established cell lines NCI/ADR-RES (RRID:CVCL_14520 and OVCAR-5 (RRID:CVCL_1628) ovarian carcinomas, 786-O (RRID:CVCL_1051) and A498 (RRID:CVCL_A498) renal cell carcinoma, NCI-H211 (ATCC, cat. CRL-5824; RRID:CVCL_1529), NCI-H196 (ATCC, cat. CRL-5823, RRID:CVCL_1509), SW 1271 (ATCC, cat. CRL-2177, RRID:CVCL_1716) and NCI-H1876 (ATCC, cat. CRL-5902, RRID:CVCL_1503) small cell lung carcinomas, MDA-MB-231 (RRID:CVCL_0062) and MDA-MB-468 (RRID:CVCL_0419)breast carcinomas (10-12). Pooled donor human umbilical vein endothelial cells (HUVEC, Lonza, cat. CC-2519) and human mesenchymal stem cells (hMSC, Lonza, cat. PT-2501) were purchased from Lonza (Walkersville, MD).
Cell Culture. All cells were maintained in an incubator at 37 degrees C and 5% CO2 with 95% humidity. The PDC lines were cultured according to standard operating procedures established by the NCI PDMR (https://pdmr.cancer.gov). Briefly all PDCs were thawed and cultured in Matrigel-coated flasks prepared with a working solution of 1X Ham's F-12 nutrient mix, without supplementation (Invitrogen, Waltham, MA, cat. 11765054), 100 U/mL penicillin-streptomycin (Invitrogen, cat. 15140122), and 2.5% Matrigel (Corning Inc., Corning, NY, cat. 354248) for the first three passages. […]

[1] = curve of first compound, second compound 0.1 µM
[2] = curve of first compound, second compound 0.316 µM
[3] = curve of first compound, second compound 1 µM
[4] = curve of first compound, second compound 3.16 µM
[5] = curve of first compound, second compound 10 µM
[6] = second compound 0.1 µM, first compound 0.00949 µM
[7] = second compound 0.1 µM, first compound 0.03 µM
[8] = second compound 0.1 µM, first compound 0.0949 µM
[9] = second compound 0.1 µM, first compound 0.3 µM
[10] = second compound 0.316 µM, first compound 0.00949 µM
[11] = second compound 0.316 µM, first compound 0.03 µM
[12] = second compound 0.316 µM, first compound 0.0949 µM
[13] = second compound 0.316 µM, first compound 0.3 µM
[14] = second compound 1 µM, first compound 0.00949 µM
[15] = second compound 1 µM, first compound 0.03 µM
[16] = second compound 1 µM, first compound 0.0949 µM
[17] = second compound 1 µM, first compound 0.3 µM
[18] = second compound 3.16 µM, first compound 0.00949 µM
[19] = second compound 3.16 µM, first compound 0.03 µM
[20] = second compound 3.16 µM, first compound 0.0949 µM
[21] = second compound 3.16 µM, first compound 0.3 µM
[22] = second compound 10 µM, first compound 0.00949 µM
[23] = second compound 10 µM, first compound 0.03 µM
[24] = second compound 10 µM, first compound 0.0949 µM
[25] = second compound 10 µM, first compound 0.3 µM
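Further: exposure lasted seven days after three days of spheroid growth.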
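Wherever viability, T/C is given: 100% = DMSO vehicle control luminescence.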

Compound: CCc1c2c(nc3ccc(O)cc13)-c1cc3c(c(=O)n1C2)COC(=O)[C@]3(O)CC + NC1CCC(NC2CC2c2ccccc2)CC1
- IC50 [1]: < 0.949 nM
- IC50 [2]: < 0.949 nM
- IC50 [3]: < 0.949 nM
- IC50 [4]: < 0.949 nM
- IC50 [5]: < 0.949 nM
- viability, T/C (second compound 0.1 µM, first compound 0.000949 µM): 34.6%
- viability, T/C (second compound 0.1 µM, first compound 0.003 µM): 27.8%
- viability, T/C [6]: 24.9%
- viability, T/C [7]: 24.2%
- viability, T/C [8]: 5.01%
- viability, T/C [9]: 2.12%
- viability, T/C (second compound 0.316 µM, first compound 0.000949 µM): 35.5%
- viability, T/C (second compound 0.316 µM, first compound 0.003 µM): 28.4%
- viability, T/C [10]: 25%
- viability, T/C [11]: 22.8%
- viability, T/C [12]: 3.48%
- viability, T/C [13]: 0.41%
- viability, T/C (second compound 1 µM, first compound 0.000949 µM): 36.2%
- viability, T/C (second compound 1 µM, first compound 0.003 µM): 24.4%
- viability, T/C [14]: 26.4%
- viability, T/C [15]: 23.7%
- viability, T/C [16]: 4.59%
- viability, T/C [17]: 0.62%
- viability, T/C (second compound 3.16 µM, first compound 0.000949 µM): 31.6%
- viability, T/C (second compound 3.16 µM, first compound 0.003 µM): 25.7%
- viability, T/C [18]: 26.7%
- viability, T/C [19]: 23.6%
- viability, T/C [20]: 5.29%
- viability, T/C [21]: 1.43%
- viability, T/C (second compound 10 µM, first compound 0.000949 µM): 30.6%
- viability, T/C (second compound 10 µM, first compound 0.003 µM): 25.7%
- viability, T/C [22]: 25.2%
- viability, T/C [23]: 25.6%
- viability, T/C [24]: 3.82%
- viability, T/C [25]: 0.29%

- IC50 (curve of compound): 721 nM and 377 nM
Compound: CC1COCCN1c1cc(C2(S(C)(=N)=O)CC2)nc(-c2ccnc3[nH]ccc23)n1 (configuration not stated)
- viability, T/C (compound 0.0316 µM): 103% and 94.9%
- viability, T/C (compound 0.1 µM): 98.4% and 71.9%
- viability, T/C (compound 0.316 µM): 65.3% and 47.5%
- viability, T/C (compound 1 µM): 44.2% and 42.4%
- viability, T/C (compound 3.16 µM): 39.6% and 31.8%
- viability, T/C (compound 10 µM): 28.1% and 23.8%

Compound: O=C(C=Cc1cccc(S(=O)(=O)Nc2ccccc2)c1)NO + NC1CC1c1ccc(-c2cccc(O)c2)cc1
- IC50 [1]: 89.8 nM
- IC50 [2]: 89.8 nM
- IC50 [3]: 69.8 nM
- IC50 [4]: 59.8 nM
- IC50 [5]: 36.7 nM
- viability, T/C [6]: 105%
- viability, T/C [7]: 76.1%
- viability, T/C [8]: 44.8%
- viability, T/C [9]: 30.9%
- viability, T/C (second compound 0.1 µM, first compound 0.949 µM): 12.9%
- viability, T/C (second compound 0.1 µM, first compound 3 µM): 0.56%
- viability, T/C [10]: 116%
- viability, T/C [11]: 83.8%
- viability, T/C [12]: 42.7%
- viability, T/C [13]: 28.7%
- viability, T/C (second compound 0.316 µM, first compound 0.949 µM): 12%
- viability, T/C (second compound 0.316 µM, first compound 3 µM): 0.43%
- viability, T/C [14]: 106%
- viability, T/C [15]: 72.3%
- viability, T/C [16]: 38.5%
- viability, T/C [17]: 25.8%
- viability, T/C (second compound 1 µM, first compound 0.949 µM): 11.9%
- viability, T/C (second compound 1 µM, first compound 3 µM): 0.47%
- viability, T/C [18]: 105%
- viability, T/C [19]: 67.7%
- viability, T/C [20]: 35.5%
- viability, T/C [21]: 23.5%
- viability, T/C (second compound 3.16 µM, first compound 0.949 µM): 10.8%
- viability, T/C (second compound 3.16 µM, first compound 3 µM): 0.43%
- viability, T/C [22]: 79.6%
- viability, T/C [23]: 53.2%
- viability, T/C [24]: 30.7%
- viability, T/C [25]: 23.4%
- viability, T/C (second compound 10 µM, first compound 0.949 µM): 11.6%
- viability, T/C (second compound 10 µM, first compound 3 µM): 0.29%

Compound: CC1COCCN1c1cc(-c2ccnn2C)c2ccnc(-c3ccn[nH]3)c2n1 (configuration not stated) + NC1CC1c1ccc(-c2cccc(O)c2)cc1
- IC50 [1]: 7.65 nM
- IC50 [2]: 8.14 nM
- IC50 [3]: 8.58 nM
- IC50 [4]: 4.73 nM
- IC50 [5]: 3.73 nM
- viability, T/C (second compound 0.1 µM, first compound 0.00316 µM): 56.5%
- viability, T/C (second compound 0.1 µM, first compound 0.01 µM): 49.9%
- viability, T/C (second compound 0.1 µM, first compound 0.0316 µM): 37.2%
- viability, T/C (second compound 0.1 µM, first compound 0.1 µM): 29.1%
- viability, T/C (second compound 0.1 µM, first compound 0.316 µM): 24.6%
- viability, T/C (second compound 0.1 µM, first compound 1 µM): 18.8%
- viability, T/C (second compound 0.316 µM, first compound 0.00316 µM): 63.4%
- viability, T/C (second compound 0.316 µM, first compound 0.01 µM): 45.9%
- viability, T/C (second compound 0.316 µM, first compound 0.0316 µM): 35.3%
- viability, T/C (second compound 0.316 µM, first compound 0.1 µM): 32.7%
- viability, T/C (second compound 0.316 µM, first compound 0.316 µM): 26%
- viability, T/C (second compound 0.316 µM, first compound 1 µM): 21%
- viability, T/C (second compound 1 µM, first compound 0.00316 µM): 60.1%
- viability, T/C (second compound 1 µM, first compound 0.01 µM): 49.8%
- viability, T/C (second compound 1 µM, first compound 0.0316 µM): 32.8%
- viability, T/C (second compound 1 µM, first compound 0.1 µM): 29.1%
- viability, T/C (second compound 1 µM, first compound 0.316 µM): 23.1%
- viability, T/C (second compound 1 µM, first compound 1 µM): 20.4%
- viability, T/C (second compound 3.16 µM, first compound 0.00316 µM): 56.6%
- viability, T/C (second compound 3.16 µM, first compound 0.01 µM): 37.8%
- viability, T/C (second compound 3.16 µM, first compound 0.0316 µM): 30.3%
- viability, T/C (second compound 3.16 µM, first compound 0.1 µM): 26.6%
- viability, T/C (second compound 3.16 µM, first compound 0.316 µM): 23.2%
- viability, T/C (second compound 3.16 µM, first compound 1 µM): 19.4%
- viability, T/C (second compound 10 µM, first compound 0.00316 µM): 51.2%
- viability, T/C (second compound 10 µM, first compound 0.01 µM): 41.9%
- viability, T/C (second compound 10 µM, first compound 0.0316 µM): 27.6%
- viability, T/C (second compound 10 µM, first compound 0.1 µM): 25%
- viability, T/C (second compound 10 µM, first compound 0.316 µM): 22.6%
- viability, T/C (second compound 10 µM, first compound 1 µM): 19.7%
